Test results reported in US7737118B2, “Rotational intrathecal analgesia” (Omeros Corporation, priority 2001, dated 2010).

Experiments:
Assay type in all cases: in vivo
male Sprague-Dawley rats [1] = experiment: Rat hindpaw withdrawal latency (HWL) to mechanical stimulation (Randall Selitto Test); conditions: for % Changes of HWL to Mechanical Stimulation 10 Minutes After Intrathecal Injection, Left: Left hindpaw; for % Changes of HWL to Mechanical Stimulation 10 Minutes After Intrathecal Injection, Right: Right hindpaw
male Sprague-Dawley rats [2] = experiment: Rat hindpaw withdrawal latency (HWL) to thermal stimulation (hot-plate test, 52° C.); conditions: for % Changes of HWL to Thermal Stimulation 10 Minutes After Intrathecal Injection, Left: Left hindpaw; for % Changes of HWL to Thermal Stimulation 10 Minutes After Intrathecal Injection, Right: Right hindpaw
male Sprague-Dawley rats [3] = experiment: Rat HWL study, both types of stimulation: analgesia and development of complete tolerance; conditions: drug alone, intrathecal every 12 hrs; mechanical and thermal HWL
Procedure: Experiments were performed on male Sprague-Dawley rats having a weight of 200-250 g. The rats were housed in cages with free access to food and water. Room temperature was maintained at 24±2° C. and a 12 hr light/dark cycle was maintained. All experiments were conducted according to the guidelines of the Committee on Animal Research at the University of California at San Francisco. Every effort was made to minimize animal suffering.
A polyethylene catheter (Intramedic PE 10) was permanently implanted intrathecally with the inner tip at L3 to L5 in each animal. Rats displaying movement disorders following placement of the catheter were not used in the study. […]
In the morphine only group, 8 μg morphine HCl was injected every 12 hrs until complete tolerance developed and in the nociceptin only group, 10 nmol nociceptin was injected every 12 hrs until complete tolerance developed. These doses were chosen from previous studies that determined an equianalgesic dosing for these two drugs. […]
The rats were trained with the testing conditions for five days prior to the experiments to decrease the stress response caused by handling and measurements and to obtain baseline responses. The hindpaw withdrawal latency (HWL) was measured for both thermal and mechanical stimulation. […] The HWLs were measured 15 min after the second intrathecal injection on a daily basis. […]

[4] = day 1, intrathecal every 12 hrs: 8 μg morphine, 10 nmol nociceptin, or rotated every two days
[5] = day 2, intrathecal every 12 hrs: 8 μg morphine, 10 nmol nociceptin, or rotated every two days
[6] = day 3, intrathecal every 12 hrs: 8 μg morphine, 10 nmol nociceptin, or rotated every two days
[7] = day 4, intrathecal every 12 hrs: 8 μg morphine, 10 nmol nociceptin, or rotated every two days
[8] = day 5, intrathecal every 12 hrs: 8 μg morphine, or morphine/nociceptin rotated every two days
[9] = day 6, intrathecal every 12 hrs: 8 μg morphine, or morphine/nociceptin rotated every two days
[10] = day 1, drug alone, intrathecal (morphine 8 μg or nociceptin 10 nmol every 12 hrs)

For CN1CC[C@]23c4c5ccc(O)c4O[C@H]2[C@@H](O)C=C[C@H]3[C@H]1C5.Cl [Morphine, morphine HCl], the “% Changes of HWL to Mechanical Stimulation 10 Minutes After Intrathecal Injection, Left” value (male Sprague-Dawley rats [1]; [4]) was 53.99 ± 2.96%, the “% Changes of HWL to Mechanical Stimulation 10 Minutes After Intrathecal Injection, Left” value (male Sprague-Dawley rats [1]; [5]) was 47.69 ± 2.54% and the “% Changes of HWL to Mechanical Stimulation 10 Minutes After Intrathecal Injection, Left” value (male Sprague-Dawley rats [1]; [6]) was 33.85 ± 1.60%. For the same molecule, the “% Changes of HWL to Mechanical Stimulation 10 Minutes After Intrathecal Injection, Left” value (male Sprague-Dawley rats [1]; [7]) was 31.37 ± 2.02%, the “% Changes of HWL to Mechanical Stimulation 10 Minutes After Intrathecal Injection, Left” value (male Sprague-Dawley rats [1]; [8]) was 15.30 ± 1.39% and the “% Changes of HWL to Mechanical Stimulation 10 Minutes After Intrathecal Injection, Left” value (male Sprague-Dawley rats [1]; [9]) was 3.26 ± 1.86%. The “% Changes of HWL to Mechanical Stimulation 10 Minutes After Intrathecal Injection, Right” value (male Sprague-Dawley rats [1]; [4]) was 56.04 ± 3.38%, the “% Changes of HWL to Mechanical Stimulation 10 Minutes After Intrathecal Injection, Right” value (male Sprague-Dawley rats [1]; [5]) was 46.74 ± 2.52% and the “% Changes of HWL to Mechanical Stimulation 10 Minutes After Intrathecal Injection, Right” value (male Sprague-Dawley rats [1]; [6]) was 33.44 ± 1.03%. For the same molecule, the “% Changes of HWL to Mechanical Stimulation 10 Minutes After Intrathecal Injection, Right” value (male Sprague-Dawley rats [1]; [7]) was 28.84 ± 2.73%, the “% Changes of HWL to Mechanical Stimulation 10 Minutes After Intrathecal Injection, Right” value (male Sprague-Dawley rats [1]; [8]) was 16.54 ± 1.26% and the “% Changes of HWL to Mechanical Stimulation 10 Minutes After Intrathecal Injection, Right” value (male Sprague-Dawley rats [1]; [9]) was 2.72 ± 1.94%. For the same molecule, the “HWL increase using mechanical stimulation” value (male Sprague-Dawley rats [1]; [10]) was ~55%, the “% Changes of HWL to Thermal Stimulation 10 Minutes After Intrathecal Injection, Left” value (male Sprague-Dawley rats [2]; [4]) was 66.26 ± 2.20% and the “% Changes of HWL to Thermal Stimulation 10 Minutes After Intrathecal Injection, Left” value (male Sprague-Dawley rats [2]; [5]) was 61.25 ± 3.05%. The “% Changes of HWL to Thermal Stimulation 10 Minutes After Intrathecal Injection, Left” value (male Sprague-Dawley rats [2]; [6]) was 51.66 ± 1.73%, the “% Changes of HWL to Thermal Stimulation 10 Minutes After Intrathecal Injection, Left” value (male Sprague-Dawley rats [2]; [7]) was 43.63 ± 1.38% and the “% Changes of HWL to Thermal Stimulation 10 Minutes After Intrathecal Injection, Left” value (male Sprague-Dawley rats [2]; [8]) was 23.85 ± 1.03%. The “% Changes of HWL to Thermal Stimulation 10 Minutes After Intrathecal Injection, Left” value (male Sprague-Dawley rats [2]; [9]) was −1.30 ± 2.36%, the “% Changes of HWL to Thermal Stimulation 10 Minutes After Intrathecal Injection, Right” value (male Sprague-Dawley rats [2]; [4]) was 66.66 ± 1.51% and the “% Changes of HWL to Thermal Stimulation 10 Minutes After Intrathecal Injection, Right” value (male Sprague-Dawley rats [2]; [5]) was 63.11 ± 0.64%. For the same molecule, the “% Changes of HWL to Thermal Stimulation 10 Minutes After Intrathecal Injection, Right” value (male Sprague-Dawley rats [2]; [6]) was 48.74 ± 2.40%, the “% Changes of HWL to Thermal Stimulation 10 Minutes After Intrathecal Injection, Right” value (male Sprague-Dawley rats [2]; [7]) was 42.45 ± 1.70% and the “% Changes of HWL to Thermal Stimulation 10 Minutes After Intrathecal Injection, Right” value (male Sprague-Dawley rats [2]; [8]) was 25.07 ± 2.07%. The “% Changes of HWL to Thermal Stimulation 10 Minutes After Intrathecal Injection, Right” value (male Sprague-Dawley rats [2]; [9]) was 0.51 ± 1.61%, the “HWL increase using thermal stimulation” value (male Sprague-Dawley rats [2]; [10]) was “approximately 67%” and the “day by which total/complete tolerance exists” value (male Sprague-Dawley rats [3]) was 6 days.
